Here are results for 16 compounds from patent publication US6376488B1, “Benzoxazine α-1 adrenergic compounds” (Abbott Laboratories, priority 2000, dated 2002).

Structures can show the parent of a compound that is named as a salt.

The target in this assay is T1, α1a (bovine) adrenoreceptor (Bos taurus, UniProt P18130).
T1 sequence (P18130 1-466): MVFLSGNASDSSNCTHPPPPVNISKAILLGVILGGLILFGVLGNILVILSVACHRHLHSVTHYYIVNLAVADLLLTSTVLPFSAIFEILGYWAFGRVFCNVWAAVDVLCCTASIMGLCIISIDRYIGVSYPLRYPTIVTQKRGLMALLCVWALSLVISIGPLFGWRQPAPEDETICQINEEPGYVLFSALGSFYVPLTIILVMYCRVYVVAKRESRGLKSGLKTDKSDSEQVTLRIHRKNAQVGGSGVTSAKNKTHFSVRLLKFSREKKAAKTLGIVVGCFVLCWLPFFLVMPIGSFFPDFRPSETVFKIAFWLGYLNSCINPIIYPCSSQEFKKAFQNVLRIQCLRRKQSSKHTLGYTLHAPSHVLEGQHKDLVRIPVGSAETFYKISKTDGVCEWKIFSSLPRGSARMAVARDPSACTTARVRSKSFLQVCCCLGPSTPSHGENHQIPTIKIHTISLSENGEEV
The experiment in a line: [3H]-prazosin radioligand binding, cloned α1a (bovine) adrenoreceptor in LTK cells. The following applies: cloned receptor in LTK cell membranes, [3H]prazosin 0.2 nM. The procedure: Representative compounds of the invention were evaluated for α adrenoreceptor binding affinity in vitro using [^3H]-prazosin as the radioligand and following four cloned α1, adrenoreceptors expressed in LTK cells: α1a (rat), α1a (bovine), α1b : (hampster), and α1d (rat).
The cDNA clones encoding the α1, adrenoreceptors were obtained from TULCO (Triangle Universities Licensing Consortium, Research Triangle Park, N.C.) and inserted into the eukaryotic expression vector SnaB30. In this vector, expression of the adrenoreceptor gene is under the transcriptional control of an SV40 early promoter. Positive drug selection is provided by a neomycin-resistance gene. Mouse fibroblast cells (LTK) were transfected with the α1 expression plasmids and grown in Dulbecco's modified Eagle's medium (DMEM) containing 10% fetal calf serum and 30 μM G418. Stable G418-resistant parental lines were generated with successful expression of adrenoreceptor protein monitored using radioligand binding techniques. Stable single cell clones derived from the parental lines were screened in adrenoreceptor binding assays to identify clones having high adrenoreceptor density. Roller bottle cultures of the cloned lines were used to provide cell membranes for subsequent adrenoreceptor binding characterization studies. A cell line containing the SnaB30 vector expressing the human erythropoietin gene served as a negative control.
For adrenoreceptor binding assays, large scale membrane preparations were utilized in which 6 million cells were seeded into small (450 cm^2) Coming tissue culture roller bottles. DMEM (200 mL) containing 10% fetal calf serum and 300 μM G418 were added to each roller bottle. A 95% air/5% CO2 gas mixture (sterile) was injected into each roller bottle prior to sealing, and the bottles were then incubated at 37° C. on a roller rack for 5 days. Cells were refed with fresh medium after 3 days in culture.
On the fifth day of culture, growth medium was removed from cells grown in roller bottles, and the cells were washed twice with PBS (Sigma, 120 mM NaCl, 2.7 mM KCl, 10 mM Na2HPO4-NaH2PO4, pH=7.4). Cells were detached from the roller bottles by incubating for 15 minutes at 37° C. in a Tris-EDTA solution (10 mM Tris, 100 mM NaCl, 1 mM EDTA, pH=7.4). The cell suspension from each roller bottle was decanted into tared centrifuge tubes and kept on ice. An aliquot of each cell suspension was generally taken for cell counting. Cells were centrifuged at 3000×G for 5 minutes at 2-4° C., washed with PBS and recentrifuged. The supernatant was decanted, and the pellet was weighed to determine the wet weight of cells. Cells were washed a final time in 40 vol 5 mM Tris-HCl, 5 mM EDTA, pH=7.7 and centrifuged at 40,000×G for 10 minutes (“vol” indicates volume/weight, e.g., a “vol” of 40 would indicate that the one gram of cells were washed with 40 mls of buffer). Cells were homogenized in of 50 mM Tris-HCl, 5 mM EDTA (pH=7.4) (10 mL) and diluted to 40 mL/tube. Homogenates were centrifuged at 40,000×G for 10 minutes. The supernatant was decanted and the pellets rehomogenized in 50 mM Tris-HCl (pH=7.4) and centrifuged as before. The supernatant was decanted and the homogenate was resuspended in 6.25 volumes (per gram wet weight) of 50 mM Tris-HCl and aliquots of the pooled homogenates frozen in liquid N2 and,stored at −70° C. until the time of assay.
Receptor binding assays for α1 adrenoreceptors were performed essentially as described by Greengrass and Bremner (Eur. J. Pharmacol. 55: 323-326 (1979)). […] Following equilibration, bound radioligand was separated from free on GF/B filters (presoaked in 0.5% polyethyleneimine) using ither a Brandel or Packard cell harvester. Radioactivity was determined by standard liquid scintillation techniques. Data were analyzed as previously described (Hancock, A. A., Kyncl, J. J., Martin, Y. C. and DeBemardis, J. F., J. Receptor Res. 8: 23-46 (1988)). The in Table 1.
`COc1cccc2c1N1CCN(CCn3c(=O)[nH]c4c(sc5cccnc54)c3=O)CC1CO2.Cl.Cl.Cl` (single isomer, unassigned; (+)) [Example 16, (+) 3-[2-(10-methoxy-1,2,4a,5-tetrahydropyrazino[2,1-c][1,4]benzoxazin-3(4H)-yl)ethyl]pyrido[2′,3′:4,5]thieno[3,2-d]pyrimidine-2,4(1H,3H)-dione trihydrochloride] showed an inhibitory constant (Ki) of 0.334 nM.

The compound `COc1cccc2c1N1CCN(CCCn3c(=O)[nH]c4c(sc5cccnc54)c3=O)CC1CO2.Cl.Cl.Cl` (single isomer, unassigned; (-)) [Example 9, (−) 3-[3-(10-methoxy-1,2,4a,5-tetrahydropyrazino[2,1-c][1,4]benzoxazin-3(4H)-yl)propyl]pyrido[2′,3′:4,5]thieno[3,2-d]pyrimidine-2,4(1H, 3H)-dione trihydrochloride] registered an inhibitory constant (Ki) of 0.249 nM.

`COc1cccc2c1N1CCN(CCn3c(=O)[nH]c4c(sc5cccnc54)c3=O)CC1CO2.Cl.Cl` (single isomer, unassigned; (-)) [Example 7, (−) 3-[2-(10methoxy-1,2,4a,5-tetrahydropyrazino[2,1-c][1,4]benzoxazin-3(4H)-yl)ethyl]pyrido[2′,3′:4,5]thieno[3,2-d]pyrimidine-2,4(1H,3H)-dione dihydrochloride] registered an inhibition constant Ki of 0.251 nM. This Ki and that of the compound before are within 1.5-fold of each other.

Turning to `COc1cccc2c1N1CCN(CCCCn3c(=O)[nH]c4c(sc5cccnc54)c3=O)CC1CO2` (single isomer, unassigned; (+)) [Example 14, (+) 3-[4-(10-methoxy-1,2,4a,5-tetrahydropyrazino[2,1-c][1,4]benzoxazin-3(4H)-yl)butyl]pyido [2′,3′:4,5]thieno[3,2-d]pyrimidine-2,4(1H,3H)-dione trihydrochloride], the inhibition constant (Ki) was found to be 0.243 nM.

Take `O=c1[nH]c2c(sc3cccnc32)c(=O)n1CCCN1CCN2c3ccccc3OCC2C1` (single isomer, unassigned; (-)) [Example 2, (−) 3-[3-(1,2,4a,5-tetrahydropyrazino[2,1-c][1,4]benzoxazin-3(4H)-yl)propyl]pyrido[2′,3′:4,5]thieno[3,2-d]pyrimidine-2,4(1H,3H)-dione dihydrochloride]: the inhibition constant (Ki) turned out to be 13.8 nM.

`COc1cccc2c1N1CCN(CCCCn3c(=O)[nH]c4c(sc5ncccc54)c3=O)CC1CO2.Cl.Cl.Cl` (single isomer, unassigned; (+)) [Example 15, (+) 3-[4-(10-methoxy-1,2,4a,5-tetrahydropyrazino[2,1-c][1,4]benzoxazin-3(4H)-yl)butyl]pyrido[3′,2′:4,5]thieno[3,2-d]pyrimidine-2,4(1H,3H)-dione trihydrochloride] displayed a Ki of 0.289 nM.

Consider `Cl.Cl.O=c1[nH]c2c(sc3cccnc32)c(=O)n1CCCN1CCN2c3ccccc3OCC2C1` (single isomer, unassigned; (+)) [Example 1, (+) 3-[3-(1,2,4a,5-tetrahydropyrazino[2,1-c][1,4]benzoxazin-3(4H)-yl)propyl]pyrido[2′,3′:4,5]thieno[3,2-d]pyrimidine-2,4(1H,3H)-dione dihydrochloride], for which the affinity, expressed as Ki, was 1.18 nM.

With `O=c1[nH]c2c(sc3cccnc32)c(=O)n1CCCCN1CCN2c3ccccc3OCC2C1` (single isomer, unassigned; (-)) [Example 4, (−) 3-[4-(1.2,4a,5-tetrahydropyrazino[2,1-c][1,4benzoxazin-3(4H)-yl)butyl]pyrido[2′,3′:4,5]thieno[3,2-d]pyrimidine-2,4(1H,3H)-dione dihydrochloride], the inhibition constant Ki was found to be 3.6 nM.

As to `COc1cccc2c1N1CCN(CCCCn3c(=O)[nH]c4c(sc5ncc(Cl)nc54)c3=O)CC1CO2.Cl.Cl` (single isomer, unassigned; (-)) [Example 12, (−) 3-[4-(10-methoxy-1,2,4a,5-tetrahydropyrazino[2,1-c][1,4]benzoxazin-3(4H)-yl)butyl]-8-chloropyrazino[2′,3′:4,5]thieno[3,2-d]pyrimidine-2,4(1H,3H)-dione dihydrochloride], the inhibition constant (Ki) was 0.41 nM.

In the case of “(−) 3-[3-(10-methoxy-1,2,4a,5-tetrahydropyrazino[2,1-c][1,4]benzoxazin-3(4H)-yl)butyl]pyrido[2′,3′:4,5]thieno[3,2-d]pyrimidine-2,4(1H,3H)-dione trihydrochloride [Example 10]”, the inhibitory constant (Ki) was 0.243 nM.

With `Cl.Cl.O=c1[nH]c2c(sc3ncccc32)c(=O)n1CCCCN1CCN2c3ccccc3OCC2C1` (single isomer, unassigned; (+)) [Example 5, (+) 3-[4-(1,2,4a,5-tetrahydropyrazino[2,1-c][1,4]benzoxazin-3(4H)-yl)butyl]pyrido[3′, 2′:4,5]thieno[3,2-d]pyrimidine-2,4(1H,3H)-dione dihydrochloride], the Ki came out at 2.72 nM.

Consider `COc1cccc2c1N1CCN(CCn3c(=O)[nH]c4c(sc5ncc(Cl)nc54)c3=O)CC1CO2.Cl.Cl` (single isomer, unassigned; (-)) [Example 13, (−) 3-[2-(10-methoxy-1,2,4a,5-tetrahydropyrazino[2,1-c][1,4]benzoxazin-3(4H)-yl)ethyl]-8-chloropyrazino[2′,3′:4,5]thieno[3,2-d]pyrimidine-2,4(1H,3H)-dione dihydrochloride], for which the Ki came to 0.685 nM.

Compound `COc1cccc2c1N1CCN(CCn3c(=O)[nH]c4c(sc5ncc(Cl)nc54)c3=O)CC1CO2.Cl.Cl` (single isomer, unassigned; (+)) [Example 8, (+) 3-[2-(10-methoxy-1,2,4a,5-tetrahydropyrazino[2,1-c][1,4]benzoxazin-3(4H)-yl)ethyl]-8-chloropyrazino[2′,3′:4,5]thieno[3,2-d]pyrimidine-2,4(1H,3H)-dione dihydrochloride] displayed an inhibitory constant (Ki) of 0.463 nM.

For the compound `COc1cccc2c1N1CCN(CCCn3c(=O)[nH]c4c(sc5cccnc54)c3=O)CC1CO2.Cl.Cl.Cl` (single isomer, unassigned; (+)) [Example 17, (+) 3-[3-(10-methoxy-1,2,4a,5-tetrahydropyrazino[2,1-c][1,4]benzoxazin-3(4H)-yl)propyl]pyrido[2′,3′:4,5]thieno[3,2-d]pyrimidine-2,4(1H,3H)-dione trihydrochloride], the Ki was 2.5 nM.

In the case of `Cl.Cl.O=c1[nH]c2c(sc3ncccc32)c(=O)n1CCCCN1CCN2c3ccccc3OCC2C1` (single isomer, unassigned; (-)) [Example 6, (−) 3-[4-(1,2,4a,5-tetrahydropyrazino[2,1-c][1,4]benzoxazin-3(4H)-yl)butyl]pyrido[3′, 2′:4,5]thieno[3,2-d]pyrimidine-2,4(1H,3H)-dione dihydrochloride], the affinity corresponds to a Ki of 5.51 nM.

Compound `Cl.Cl.O=c1[nH]c2c(sc3cccnc32)c(=O)n1CCCCN1CCN2c3ccccc3OCC2C1` (single isomer, unassigned; (+)) [Example 3, (+) 3-[4-(1,2,4a,5-tetrahydropyrazino[2,1-c][1,4]benzoxazin-3(4H)-yl)butyl]pyrido[2′, 3′:4,5]thieno[3,2-d]pyrimidine-2,4(1H,3H)-dione dihydrochloride] yielded a Ki of 2.09 nM.
